Data taken from ChEMBL document CHEMBL1255318, “Effect of low-dose ritonavir on the pharmacokinetics of the CXCR4 antagonist AMD070 in healthy volunteers” (Antimicrob Agents Chemother, 2008).

How the values were obtained:
Format in all cases: ADME, organism-based
[1] = AUC (0 to infinity) in […] at […], po administered as single dose measured on day 3 by HPLC in presence of […]; parameters: time infinity, route oral; conditions: human, plasma
[2] = AUC (0 to infinity) in […] at […], po administered as single dose measured on day 17 by HPLC in presence of 29 doses of […]; parameters: route oral, time infinity; conditions: human, plasma
[3] = Tmax in […] at […], po administered as single dose measured on day 1 by HPLC; parameters: route oral; conditions: human, in vivo
[4] = Apparent volume of distribution during terminal phase in […] at […], po administered as single dose measured on day 17 by HPLC in presence of 29 doses of […]; conditions: human, in vivo, read-out: Vz/F
[5] = Tmax in […] at […], po administered as single dose measured on day 17 by HPLC in presence of 29 doses of […]; conditions: human, in vivo
[6] = AUC (0 to infinity) in […] at […], po administered as single dose measured on day 1 by HPLC; parameters: route oral, time infinity; conditions: human, plasma
[7] = Cmax in rat in presence of ritonavir; conditions: in vivo
[8] = Oral bio availability in rat in presence of ritonavir; conditions: in vivo
[9] = Apparent volume of distribution during terminal phase in […] at […], po administered as single dose measured on day 1 by HPLC; parameters: route oral; conditions: human, in vivo, read-out: Vz/F
[10] = Apparent volume of distribution during terminal phase in […] at […], po administered as single dose measured on day 3 by HPLC in presence of […]; conditions: human, in vivo, read-out: Vz/F
[11] = Cmax in […] at […], po administered as single dose measured on day 1 by HPLC; parameters: route oral; conditions: human, in vivo
[12] = AUC in rat in presence of ritonavir; conditions: plasma
[13] = Tmax in […] at […], po administered as single dose measured on day 3 by HPLC in presence of […]; conditions: human, in vivo
[14] = Cmax in […] at […], po administered as single dose measured on day 17 by HPLC in presence of 29 doses of […]; parameters: route oral; conditions: human, in vivo
[15] = Cmax in […] at […], po administered as single dose measured on day 3 by HPLC in presence of […]; parameters: route oral; conditions: human, in vivo

AUC(0-inf) [1]: 1640 ng·h/mL
AUC(0-inf) [2]: 1200 ng·h/mL
Tmax [3]: 3 h
Vd/F [4]: 3930 L
Tmax [5]: 1 h
AUC(0-inf) [6]: 934 ng·h/mL
Cmax [7]: 158 ng/mL
bioavailability [8]: 66%
Vd/F [9]: 4200 L
Vd/F [10]: 3450 L
Cmax [11]: 256 ng/mL
AUC [12]: 58 ng·h/mL
Tmax [13]: 2 h
Cmax [14]: 333 ng/mL
Cmax [15]: 362 ng/mL
SMILES: NCCCCN(Cc1nc2ccccc2[nH]1)[C@H]1CCCc2cccnc21 [MAVORIXAFOR]
